How the values were obtained:
[1] = pH stability measurement (UPLC, 0.1 N HCl); format: physicochemical; conditions: buffer, 24 h, 148 µM, pH 1
Method: Compounds were provided in 96-well plates and tested in triplicate. Four microliters of a 10 mM stock solution of compound in DMSO were distributed into each of three wells. The plate was stored at or below −20° C. until the day of the analysis. Methanol (HPLC grade) and 0.1 N HCl (EMD catalog HX0603A-6) were used for dilutions. Acetonitrile (HPLC grade), water (Milli-Q filtered), trifluoroacetic acid (spectral grade) and 0.2M phosphate buffer (Wako, catalog no. 163-14471) were used to prepare the mobile phase for the two analyses.
Stability data was obtained using a Waters Acquity UPLC equipped with a UV detector (Waters TUV) and single quadrupole MS detector (Waters SQD). The 96-well plate containing the compound(s) of interest was(were) removed from the freezer and allowed to warm to room temperature for one hour. The UPLC was primed, equilibrated and the system performance was verified by injecting a standard. After 1 hour, each of the three wells was diluted with 266 μL 0.1 N HCl to give pH=1. The plate was covered and placed on a shaker (Eppindorf Thermomixer R) for 45 minutes at 600 rpm. The plate was removed from the shaker, and the contents of each well were filtered through a filtration plate (Millipore catalog no. MSSLBPC50) by vacuum and injected into the UPLC. After approximately 24 hours, the contents of the wells were re-injected into the UPLC.
Stability in the various buffers was measured by comparing the peak area- % of the analyte in methanol versus the peak area- % of the analyte at the same retention time in 0.1 N HCl buffer in the 24 hr time point injection.

[2] = patients; administered as intravenous infusion; cited from earlier work
[3] = system: WiDr-R cells (colon cancer cells, SF3B1 R1074H mutation); conditions: cited from earlier work
[4] = system: U251 human glioma cells; conditions: U251 human glioma cells in vitro; read-out: IC50, glioma cell proliferation; cited from earlier work
[5] = system: reporter gene controlled by human VEGF promoter; conditions: read-out: IC50, VEGF-promoted gene expression; cited from earlier work

Row | Compound | % parent remaining (pH = 1, 24 hours) [1] [%] | oral bioavailability [2] | resistance of WiDr-R cells in terms of growth inhibition [3] | IC50 [4] [nM] | IC50 [5] [nM]
1 | CCC(O)C(C)C1OC1CC(C)(O)/C=C/C=C(\C)C1OC(=O)CC(O)CCC(C)(O)C(OC(=O)N2CCN(C3CCCCCC3)CC2)/C=C/C1C (centres unmarked) [Compound E7107, (8E,12E,14E)-7-((4-Cycloheptylpiperazin-1-yl)carbonyl)oxy-3,6,16,21-tetrahydroxy-6,10,12,16,20-pentamethyl-18,19-epoxytricosa-8,12,14-trien-11-olide, reference compound] | 44 | insufficient oral bioavailability |  |  | 
2 | Pladienolide B |  |  | resistant to pladienolide B in terms of growth inhibition | 3.5 | 1.8

From patent US9481669B2, “Pladienolide pyridine compounds and methods of use” (Eisai R&D Management Co., Ltd., priority 2014, dated 2016)
